According to US8802597B2, “Herbicidal pyrimidines” (E I du Pont de Nemours and Company, priority 2003, dated 2014):
Where two headings read alike, the source gives them in different places.

Key:
Type in all cases: in vivo
[1] = test system: cocklebur (Xanthium strumarium); test: Test C pre/postemergence; settings: Xanthium strumarium; for pest or weed control at 31 g/ha: 31 g ai/ha; for pest or weed control at 62 g/ha: 62 g ai/ha; for pest or weed control at 125 g/ha: 125 g ai/ha
From the text: (§1) Seeds or nutlets of plant species selected from bermudagrass (Cynodon dactylon), Surinam grass (Brachiaria decumbens), cocklebur (Xanthium strumarium), corn (Zea mays), crabgrass (Digitaria sanguinalis), woolly cupgrass (Eriochloa villosa), giant foxtail (Setaria faberii), goosegrass (Eleusine indica), johnsongrass (Sorghum halepense), kochia (Kochia scoparia), lambsquarters (Chenopodium album), morningglory (Ipomoea coccinea), eastern black nightshade (Solanum ptycanthum), yellow nutsedge (Cyperus esculentus), pigweed (Amaranthus retroflexus), common ragweed (Ambrosia elatior), soybean (Glycine max), common (oilseed) sunflower (Helianthus annuus), and velvetleaf (Abutilon theophrasti) were planted and treated preemergence with test chemicals formulated in a non-phytotoxic solvent mixture which included a surfactant.
(§2) At the same time, plants selected from these crop and weed species and also winter barley (Hordeum vulgare), blackgrass (Alopecurus myosuroides), canarygrass (Phalaris minor), chickweed (Stellaria media), downy brome (Bromus tectorum), green foxtail (Setaria viridis), Italian ryegrass (Lolium multiflorum), wheat (Triticum aestivum), wild oat (Avena fatua) and windgrass (Apera spica-venti) were treated with postemergence applications of some of the test chemicals formulated in the same manner. Plants ranged in height from 2 to 18 cm (1- to 4-leaf stage) for postemergence treatments. Plant species in the flooded paddy test consisted of rice (Oryza sativa), umbrella sedge (Cyperus difformis), duck salad (Heteranthera limosa) and barnyardgrass (Echinochloa crus-galli) grown to the 2-leaf stage for testing. Treated plants and controls were maintained in a greenhouse for 12 to 14 days, after which time all species were compared to controls and visually evaluated. Plant response ratings, summarized in Table C, are based on a scale of 0 to 100 where 0 is no effect and 100 is complete control. A dash (-) response means no test result.

kochia (Kochia scoparia) = test: Test C pre/postemergence; settings: Bassia scoparia; for pest or weed control at 31 g/ha: 31 g ai/ha; for pest or weed control at 62 g/ha: 62 g ai/ha; for pest or weed control at 125 g/ha: 125 g ai/ha; for pest or weed control at 250 g/ha: 250 g ai/ha
From the text: as §1, §2

[2] = test system: johnsongrass (Sorghum halepense); test: Test C pre/postemergence; settings: Sorghum halepense; for pest or weed control at 31 g/ha: 31 g ai/ha; for pest or weed control at 62 g/ha: 62 g ai/ha; for pest or weed control at 125 g/ha: 125 g ai/ha; for pest or weed control at 250 g/ha: 250 g ai/ha
From the text: as §1, §2

[3] = test system: pigweed (Amaranthus retroflexus); test: Test C pre/postemergence; settings: Amaranthus retroflexus; for pest or weed control at 31 g/ha: 31 g ai/ha; for pest or weed control at 62 g/ha: 62 g ai/ha; for pest or weed control at 125 g/ha: 125 g ai/ha; for pest or weed control at 250 g/ha: 250 g ai/ha
From the text: as §1, §2

[4] = test system: crabgrass (Digitaria sanguinalis); test: Test C pre/postemergence; settings: Digitaria sanguinalis; for pest or weed control at 31 g/ha: 31 g ai/ha; for pest or weed control at 62 g/ha: 62 g ai/ha; for pest or weed control at 125 g/ha: 125 g ai/ha; for pest or weed control at 250 g/ha: 250 g ai/ha
From the text: as §1, §2

[5] = test system: morningglory (Ipomoea spp.); test: Test A pre/postemergence; settings: Ipomoea, 240 h, read-out: Plant response rating, Morningglory; for pest or weed control at 125 g/ha: 125 g ai/ha; for pest or weed control at 500 g/ha: 500 g ai/ha
In short: (§3)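 Compared with untreated controls, treated plants were visually rated for injury on a 0 (none) to 100 (complete control) scale about ten days after spraying. Pre- and postemergence applications used one solvent/surfactant formulation; postemergence plants measured 2–10 cm.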

[6] = test system: redroot pigweed (Amaranthus retroflexus); test: Test A pre/postemergence; settings: Amaranthus retroflexus, 240 h, read-out: Plant response rating, Pigweed; for pest or weed control at 125 g/ha: 125 g ai/ha; for pest or weed control at 500 g/ha: 500 g ai/ha
In short: as §3

[7] = test system: barnyardgrass (Echinochloa crus-galli); test: Test A pre/postemergence; settings: Echinochloa crus-galli, 240 h, read-out: Plant response rating, Barnyardgrass; for pest or weed control at 125 g/ha: 125 g ai/ha; for pest or weed control at 500 g/ha: 500 g ai/ha
In short: as §3

[8] = test system: giant foxtail (Setaria faberi); test: Test A pre/postemergence; settings: Setaria faberi, 240 h, read-out: Plant response rating, Foxtail, Giant; for pest or weed control at 125 g/ha: 125 g ai/ha; for pest or weed control at 500 g/ha: 500 g ai/ha
In short: as §3

[9] = test system: crabgrass (Digitaria sanguinalis); test: Test A pre/postemergence; settings: Digitaria sanguinalis, 240 h, read-out: Plant response rating, Crabgrass; for pest or weed control at 125 g/ha: 125 g ai/ha; for pest or weed control at 500 g/ha: 500 g ai/ha
In short: as §3

[10] = test system: velvetleaf (Abutilon theophrasti); test: Test A pre/postemergence; settings: Abutilon theophrasti, 240 h, read-out: Plant response rating, Velvetleaf; for pest or weed control at 125 g/ha: 125 g ai/ha; for pest or weed control at 500 g/ha: 500 g ai/ha
In short: as §3

[11] = post-emergence, Postemergence, scale 0 to 100 (0 no effect, 100 complete control), read-out: Cocklebur plant response rating
[12] = pre-emergence, Preemergence, scale 0 to 100, 0 no effect, 100 complete control, read-out: Plant response rating, Cocklebur
[13] = post-emergence, Postemergence, scale 0 to 100 (0 no effect, 100 complete control), read-out: Kochia plant response rating
[14] = pre-emergence, Preemergence, scale 0 to 100, 0 no effect, 100 complete control, read-out: Plant response rating, Kochia
[15] = pre-emergence, Preemergence, scale 0 to 100, read-out: Plant response rating, Kochia
[16] = post-emergence, Postemergence, scale 0 to 100 (0 no effect, 100 complete control), read-out: Johnsongrass plant response rating
[17] = pre-emergence, Preemergence, scale 0 to 100, 0 no effect, 100 complete control, read-out: Plant response rating, Johnsongrass
[18] = pre-emergence, Preemergence, scale 0 to 100, read-out: Plant response rating, Johnsongrass
[19] = post-emergence, Postemergence, scale 0 to 100 (0 no effect, 100 complete control), read-out: Pigweed plant response rating
[20] = pre-emergence, Preemergence, scale 0 to 100, 0 no effect, 100 complete control, read-out: Plant response rating, Pigweed
[21] = pre-emergence, Preemergence, scale 0 to 100, read-out: Plant response rating, Pigweed
[22] = post-emergence, Postemergence, scale 0 to 100 (0 no effect, 100 complete control), read-out: Crabgrass plant response rating
[23] = pre-emergence, Preemergence, scale 0 to 100, 0 no effect, 100 complete control, read-out: Plant response rating, Crabgrass
[24] = pre-emergence, Preemergence, scale 0 to 100, read-out: Plant response rating, Crabgrass
[25] = post-emergence, Postemergence, 0 to 100 scale (0 no effect, 100 complete control)
[26] = pre-emergence, Preemergence, 0 to 100 scale where 0 is no effect and 100 is complete control, approximately ten days

Question: Which results are given for `CCOC(=O)c1nc(-c2ccc(Cl)cc2)nc(N)c1Cl` [Compound 64, ethyl 6-amino-5-chloro-2-(4-chlorophenyl)-4-pyrimidinecarboxylate]?
Answer: pest or weed control at 31 g/ha ([1]; post-emergence, Postemergence, read-out: Plant response rating (scale of 0 to 100), Cocklebur): 90%; pest or weed control at 62 g/ha [1, 11]: 90%; pest or weed control at 125 g/ha [1, 11]: 100%; pest or weed control at 31 g/ha [1, 12]: 0%; pest or weed control at 62 g/ha [1, 12]: 0%; pest or weed control at 125 g/ha ([1]; pre-emergence, Preemergence, scale 0 to 100, read-out: Plant response rating, Cocklebur): 5%; pest or weed control at 250 g/ha ([1]; pre-emergence, Preemergence, 250 g ai/ha, scale 0 to 100, read-out: Plant response rating, Cocklebur): 30%; pest or weed control at 31 g/ha (kochia (Kochia scoparia); post-emergence, Postemergence, read-out: Plant response rating (scale of 0 to 100), Kochia): 80%; pest or weed control at 62 g/ha (kochia (Kochia scoparia); [13]): 85%; pest or weed control at 125 g/ha (kochia (Kochia scoparia); [13]): 90%; pest or weed control at 250 g/ha (kochia (Kochia scoparia); post-emergence, Postemergence, scale 0 to 100, read-out: Plant response rating, Kochia): 90%; pest or weed control at 31 g/ha (kochia (Kochia scoparia); [14]): 20%; pest or weed control at 62 g/ha (kochia (Kochia scoparia); [14]): 20%; pest or weed control at 125 g/ha (kochia (Kochia scoparia); [15]): 25%; pest or weed control at 250 g/ha (kochia (Kochia scoparia); [15]): 70%; pest or weed control at 31 g/ha ([2]; post-emergence, Postemergence, read-out: Plant response rating (scale of 0 to 100), Johnsongrass): 60%; pest or weed control at 62 g/ha [2, 16]: 80%; pest or weed control at 125 g/ha [2, 16]: 85%; pest or weed control at 250 g/ha ([2]; post-emergence, Postemergence, scale 0 to 100, read-out: Plant response rating, Johnsongrass): 85%; pest or weed control at 31 g/ha [2, 17]: 5%; pest or weed control at 62 g/ha [2, 17]: 5%; pest or weed control at 125 g/ha [2, 18]: 50%; pest or weed control at 250 g/ha [2, 18]: 60%; pest or weed control at 31 g/ha ([3]; post-emergence, Postemergence, read-out: Plant response rating (scale of 0 to 100), Pigweed): 85%; pest or weed control at 62 g/ha [3, 19]: 95%; pest or weed control at 125 g/ha [3, 19]: 100%; pest or weed control at 250 g/ha ([3]; post-emergence, Postemergence, scale 0 to 100, read-out: Plant response rating, Pigweed): 100%; pest or weed control at 31 g/ha [3, 20]: 10%; pest or weed control at 62 g/ha [3, 20]: 30%; pest or weed control at 125 g/ha [3, 21]: 100%; pest or weed control at 250 g/ha [3, 21]: 100%; pest or weed control at 31 g/ha ([4]; post-emergence, Postemergence, read-out: Plant response rating (scale of 0 to 100), Crabgrass): 70%; pest or weed control at 62 g/ha [4, 22]: 80%; pest or weed control at 125 g/ha [4, 22]: 85%; pest or weed control at 250 g/ha ([4]; post-emergence, Postemergence, scale 0 to 100, read-out: Plant response rating, Crabgrass): 90%; pest or weed control at 31 g/ha [4, 23]: 0%; pest or weed control at 62 g/ha [4, 23]: 0%; pest or weed control at 125 g/ha [4, 24]: 70%; pest or weed control at 250 g/ha [4, 24]: 90%; pest or weed control at 125 g/ha [5, 25]: 80%; pest or weed control at 500 g/ha [5, 25]: 95%; pest or weed control at 125 g/ha [5, 26]: 40%; pest or weed control at 500 g/ha [5, 26]: 70%; pest or weed control at 125 g/ha [6, 25]: 90%; pest or weed control at 500 g/ha [6, 25]: 100%; pest or weed control at 125 g/ha [6, 26]: 20%; pest or weed control at 500 g/ha [6, 26]: 100%; pest or weed control at 125 g/ha [7, 25]: 25%; pest or weed control at 500 g/ha [7, 25]: 70%; pest or weed control at 125 g/ha [7, 26]: 0%; pest or weed control at 500 g/ha [7, 26]: 60%; pest or weed control at 125 g/ha [8, 25]: 70%; pest or weed control at 500 g/ha [8, 25]: 80%; pest or weed control at 125 g/ha [8, 26]: 15%; pest or weed control at 500 g/ha [8, 26]: 70%; pest or weed control at 125 g/ha [9, 25]: 50%; pest or weed control at 500 g/ha [9, 25]: 70%; pest or weed control at 125 g/ha [9, 26]: 25%; pest or weed control at 500 g/ha [9, 26]: 90%; pest or weed control at 125 g/ha [10, 25]: 95%; pest or weed control at 500 g/ha [10, 25]: 100%; pest or weed control at 125 g/ha [10, 26]: 25%; pest or weed control at 500 g/ha [10, 26]: 95%
